“Also recorded” adds a separate entry of the source.
What was measured:
HCT116 cells = experiment: MTS cell viability assay, HCT116; type: cell-based; details: Homo sapiens, HCT-116, 72 h, read-out: IC50 ± SD
Procedure: (§1) 26. MTS Cell Viability Assay
(§2) Colorectal cancer cell lines, SW480 and HCT116 were seeded in 96-well plates at 4×10^3 cells/well, maintained overnight at 37° C., and incubated with the tested compounds at various concentrations. Cell viability was monitored after 72 h using a freshly prepared mixture of 1 part phenazine methosulfate (PMS, Sigma) solution (0.92 mg/mL) and 19 parts 3-(4,5-dimethylthiazol-2-yl)-5-(3-carboxymethoxyphenyl)-2-(4-sulfophenyl)-2H-tetrazolium (MTs, Promega) solution (2 mg/mL). Cells were incubated in 10 μL of this solution at 37° C. for 3 h, and A490 was measured. […] Experiments were performed in triplicate.

[1] = target: β-catenin D145A/E155A double mutant/BCL9 interaction (Homo sapiens (Human), UniProt P35222, D145A/E155A); experiment: AlphaScreen competitive inhibition assay, β-catenin D145A/E155A double mutant/BCL9 interaction; type: binding; details: read-out: Ki ± SD
Chain of β-catenin D145A/E155A double mutant/BCL9 interaction (P35222 138-686 D145A/E155A): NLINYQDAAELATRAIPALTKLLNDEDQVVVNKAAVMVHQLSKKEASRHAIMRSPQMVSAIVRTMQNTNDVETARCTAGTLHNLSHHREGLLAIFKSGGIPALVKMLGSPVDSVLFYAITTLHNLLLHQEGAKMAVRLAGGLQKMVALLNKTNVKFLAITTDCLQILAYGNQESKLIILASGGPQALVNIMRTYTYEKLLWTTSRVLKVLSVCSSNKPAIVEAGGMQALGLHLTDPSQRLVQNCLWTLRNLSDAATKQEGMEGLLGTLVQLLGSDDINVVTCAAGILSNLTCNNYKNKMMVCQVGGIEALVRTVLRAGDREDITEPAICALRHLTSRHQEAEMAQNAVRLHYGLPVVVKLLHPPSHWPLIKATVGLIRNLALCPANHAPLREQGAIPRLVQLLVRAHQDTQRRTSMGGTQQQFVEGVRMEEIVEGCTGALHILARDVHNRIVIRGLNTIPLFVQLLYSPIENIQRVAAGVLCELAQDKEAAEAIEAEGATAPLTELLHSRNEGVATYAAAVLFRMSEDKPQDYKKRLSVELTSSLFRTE
Procedure: (§3) β-Catenin mutants D145A, E155A, D145A/E155A have been made previously.^5 Wild-type β-catenin and its mutants (residues 138-686) were cloned into a pET-28b vector carrying a C-terminal 6×histidine (Novagen), and transformed into Escherichia coli BL21 DE3 (Novagen). Cells were cultured in LB medium with 30 μg/mL kanamycin until the OD600 was approximately 0.8, and then protein expression was induced with 400 μM of IPTG at 20° C. overnight. Cells were lysed by sonication. […] The purity of β-catenin was greater than 95% as determined by SDS-PAGE gel analysis. Native non-denaturing gel electrophoresis was performed to confirm the homogeneity of the purified proteins. Thermal-shift assay was performed on an iCycler iQ Real Time Detection System (Bio-Rad) to monitor protein stability and detect protein aggregation. Protein unfolding was evaluated through measuring the fluorescence changes of fluorescent dye Sypro Orange when interacting with wild-type or mutant β-catenin proteins. A temperature increment of 1°/min was applied. CD spectra were measured on a J-815 spectropolarimeter (Jasco). All spectra were recorded at room temperature, and the baseline control containing all of the substances except protein. […]

[2] = tested on: pcDNA3.1-β-catenin transfected HEK293 cells, TOPFlash (wild-type Tcf binding sites); experiment: TOPFlash Wnt-responsive luciferase reporter assay; type: cell-based; details: 24 h treatment, hydrochloride
Procedure: (§4) 27. Cell Transfection and Luciferase Assay
(§5) FuGENE 6 (E2962, Promega) in a 96-well plate format was used for the transfection of HEK293 and SW480 cells according to the manufacturer's instructions. HEK293 cells were co-transfected with 45 ng of the TOPFlash (with three wild-type Tcf binding sites) or FOPFlash (with three mutant Tcf binding sites) reporter gene, 135 ng pcDNA3.1-β-catenin and 20 ng pCMV-RL normalization reporter gene. SW480 cells were co-transfected with 60 ng of the TOPFlash or FOPFlash reporter gene and 40 ng pCMV-RL normalization reporter. Cells were cultured at 37° C. for 24 h, and different concentrations of inhibitors were then added. After 24 h, the luciferase reporter activity was measured using the Dual-Glo system (E2940, Promega). Normalized luciferase activity in response to the treatment with the inhibitors was compared with that obtained from the cells treated with DMSO. Experiments were performed in triplicate.

β-catenin/BCL9 PPI = β-catenin/BCL9 PPI (Homo sapiens (Human), UniProt P35222); experiment: AlphaScreen competitive inhibition assay, wild-type β-catenin/BCL9 PPI; type: binding; details: wild-type β-catenin/BCL9 PPI, AlphaScreen competitive inhibition, mean ± SD (n=3)
Chain of β-catenin/BCL9 PPI (P35222 138-686): as the sequence (P35222 138-686 D145A/E155A) above, with A8D, A18E counted along it
Procedure: Cells were cultured in LB medium with 30 μg/mL kanamycin until the OD600 was approximately 0.8, and then protein expression was induced with 400 μM of IPTG at 20° C. overnight. Cells were lysed by sonication. […] Native non-denaturing gel electrophoresis was performed to confirm the homogeneity of the purified proteins. Thermal-shift assay was performed on an iCycler iQ Real Time Detection System (Bio-Rad) to monitor protein stability and detect protein aggregation. Protein unfolding was evaluated through measuring the fluorescence changes of fluorescent dye Sypro Orange when interacting with wild-type or mutant β-catenin proteins. A temperature increment of 1°/min was applied. […] All spectra were recorded at room temperature, and the baseline control containing all of the substances except protein. Sample were prepared at a concentration around 1-5 μM in a buffer of 10 mM potassium phosphate and 100 mM potassium fluoride at pH 7.0 to ensure that the transmission of light through the sample was not restricted. […] Proteins were aliquoted and stored at −80° C.
25. Alphascreen Competitive Inhibition Assays Using Wild-Type and Mutant β-Catenin Proteins

SW480 cells = experiment: MTS cell viability assay, SW480; type: cell-based; details: Homo sapiens, SW480, 72 h, read-out: IC50 ± SD
Procedure: as §1, §2

β-catenin D145A/BCL9 PPI = β-catenin D145A/BCL9 PPI (Homo sapiens (Human), UniProt P35222, D145A); experiment: AlphaScreen competitive inhibition assay, β-catenin D145A mutant/BCL9 PPI; type: binding
Chain of β-catenin D145A/BCL9 PPI (P35222 138-686 D145A): as the sequence (P35222 138-686 D145A/E155A) above, with A18E counted along it
Procedure: as §3

[3] = tested on: pcDNA3.1-β-catenin transfected HEK293 cells, FOPFlash (mutant Tcf binding sites); experiment: FOPFlash luciferase reporter assay; type: cell-based; details: up to 100 μM
Procedure: as §4, §5

β-catenin E155A/BCL9 PPI = β-catenin E155A/BCL9 PPI (Homo sapiens (Human), UniProt P35222, E155A); experiment: AlphaScreen competitive inhibition assay, β-catenin E155A mutant/BCL9 PPI; type: binding
Chain of β-catenin E155A/BCL9 PPI (P35222 138-686 E155A): as the sequence (P35222 138-686 D145A/E155A) above, with A8D counted along it
Procedure: as §3

β-catenin/cadherin PPI = β-catenin/cadherin PPI (Homo sapiens (Human), UniProt P35222); experiment: AlphaScreen selectivity assay, β-catenin/BCL9 over β-catenin/cadherin PPIs; type: binding; details: in-parallel AlphaScreen selectivity assay
Chain of β-catenin/cadherin PPI (P35222 138-686): as the sequence (P35222 138-686 D145A/E155A) above, with A8D, A18E counted along it
Description: Human BCL9 (residues 350-375), N-terminally biotinylated human BCL9 (residues 350-375), N-terminally fluorescein-labeled human BCL9 (residues 350-375), and N-terminally biotinylated human E-cadherin (residues 824-877) were synthesized by InnoPep Inc. (www.innopep.com) and HPLC purified by HPLC with purity>95%. The structures were validated by LC/MS. The sequences of these peptides have been described previously.^6
The experimental details of the AlphaScreen competitive inhibition assays for the β-catenin/BCL9 and β-catenin/E-cadherin PPIs have been described previously.^5 The concentrations of mutant β-catenin proteins used in the AlphaScreen competitive inhibition assays were the same as that of wild-type β-catenin protein.
The AlphaScreen selectivity assay was used to quantify inhibitor selectivity.

`Cl.Cl.O=C(c1cc(F)cc(N2CCNCC2)c1)N1CCN(C(=O)c2ccc(O[C@H]3CCNC3)c(C3CCCCC3)c2)CC1` [Compound 10, (S)-(4-(3-Cyclohexyl-4-(pyrrolidin-3-yloxy)benzoyl)piperazin-1-yl) (3-fluoro-5-(piperazin-1-yl)phenyl) methanone hydrochloride] was tested, and the IC50 (HCT116 cells) was 26 ± 6.6 µM, the Ki [1] was 53 ± 4.2 µM and the TOPFlash luciferase activity [2] was “suppressed the TOPFlash (with wild-type Tcf binding sites) luciferase activity in a dose-dependent manner; also recorded: suppress the transactivation of canonical Wnt signaling”. For the same molecule, the Ki (β-catenin/BCL9 PPI) was 5.2 µM, the IC50 (SW480 cells) was 22 ± 4 µM and the “Ki fold higher than for wild-type β-catenin/BCL9 PPI” value (β-catenin D145A/BCL9 PPI; β-catenin D145A/BCL9 PPI vs wild type) was 6-8 fold. The Ki (β-catenin D145A/BCL9 PPI; β-catenin D145A/BCL9 PPI, AlphaScreen competitive inhibition, read-out: Ki ± SD) was 29 ± 3 µM, the FOPFlash luciferase activity [3] was “did not affect” and the “Ki fold higher than for wild-type β-catenin/BCL9 PPI” value (β-catenin E155A/BCL9 PPI; β-catenin E155A/BCL9 PPI vs wild type) was 6-8 fold. The Ki (β-catenin E155A/BCL9 PPI; β-catenin E155A/BCL9 PPI, AlphaScreen competitive inhibition, read-out: Ki ± SD) was 39 ± 3.3 µM and the “selectivity for β-catenin/BCL9 over β-catenin/cadherin PPIs” value (β-catenin/cadherin PPI) was 98 fold.
